From patent US20240350447A1, “DELIVERY METHODS FOR TREATING BRAIN AND CENTRAL NERVOUS SYSTEM DISEASES” (JENIVISION INC., priority 2021, published 2024)

How the values were obtained:
[1] = Baseline endogenous levels of DHA, DHA-EE and JV-DE1; format: in vivo; settings: undosed Bama minipigs
Method: Endogenous levels were measured in the plasma, cerebrospinal fluid, ocular tissues (retina, optic nerve, ocular muscles), and brain. The endogenous levels DHA are not attributable to NIODP administration of DHA, DHA-EE, or JV-DE1. The baseline data collected in Table 4 was taken from the same lot of pigs, from the same vendor, as the information collected in Tables 5-7.

[2] = DHA-EE distribution after single periorbital skin administration; format: in vivo, Bama minipigs
Method: In this example, 6174 μg/eye of docohexaenoic acid ethyl ester (DHA-EE) was applied to the periorbital skin of a left eye of a Bama minipig. […] 21099.7 ng/g of tissue and 21336.3 ng/g of tissue of DHA was measured in the left and right halves of the brain, respectively. […] The average amount of DHA present in the brain 3 hours post-dosage was 21218 ng/g.
Given that the average Bama pig brain weighs around 60 g, the amount of DHA delivered to the brain can be estimated to be 27,600 ng or 27.6 μg. Therefore, the percentage of administered dose=27.6 μg delivered to brain/6174 μg dosed=0.45% of DHA topically administered to the pig via periorbital administration was delivered to the brain. As a comparison, only about 0.025% of DHA that is orally administered is delivered to the brain or CNS.

[3] = 0 h, DHA-EE 6174 μg to periorbital skin of left eye
[4] = 1 h, DHA-EE 6174 μg to periorbital skin of left eye
[5] = 3 h, DHA-EE 6174 μg to periorbital skin of left eye

- Baseline endogenous concentration in brain [1]: BLQ
- Baseline endogenous concentration in cerebrospinal fluid [1]: BLQ
- Baseline endogenous concentration in eye tissue homogenate including (Retina, optic nerve, ocular muscle) [1]: BLQ
- Baseline endogenous concentration in plasma [1]: BLQ
- Drug Concentration in Plasma, analyte DHA [2, 3]: BLQ
- Drug Concentration in Plasma, analyte DHA-EE [2, 3]: BLQ
- Drug Concentration in Plasma, analyte DHA [2, 4]: BLQ
- Drug Concentration in Plasma, analyte DHA-EE [2, 4]: BLQ
- Percentage of administered dose delivered to the brain (as DHA) ([2]; 3 h, DHA-EE 6174 μg periorbital, whole brain estimate): 0.45%
- Analyte DHA, % of administered dose: Cerebrospinal fluid [2, 5]: 0%
- Analyte DHA, % of administered dose: brain-left [2, 5]: 0.332%
- Analyte DHA, % of administered dose: brain-right [2, 5]: 0.562%
- Analyte DHA, % of administered dose: inferior rectus muscle-left [2, 5]: 0.008%
- Analyte DHA, % of administered dose: inferior rectus muscle-right [2, 5]: 0.009%
- Analyte DHA, % of administered dose: lateral rectus muscle-left [2, 5]: 0.004%
- Analyte DHA, % of administered dose: lateral rectus muscle-right [2, 5]: 0.010%
- Analyte DHA, % of administered dose: medial rectus muscle-left [2, 5]: 0.020%
- Analyte DHA, % of administered dose: medial rectus muscle-right [2, 5]: 0.016%
- Analyte DHA, % of administered dose: optic nerve-left [2, 5]: 0.011%
- Analyte DHA, % of administered dose: optic nerve-right [2, 5]: 0.031%
- Analyte DHA, % of administered dose: retina-left [2, 5]: 0.130%
- Analyte DHA, % of administered dose: retina-right [2, 5]: 0.110%
- Analyte DHA, % of administered dose: superior rectus muscle-left [2, 5]: 0.043%
- Analyte DHA, % of administered dose: superior rectus muscle-right [2, 5]: 0.005%
- Analyte DHA, Concentration in Tissue: Cerebrospinal fluid [2, 5]: 0 ng/g
- Analyte DHA, Concentration in Tissue: brain-left [2, 5]: 21099.7 ng/g
- Analyte DHA, Concentration in Tissue: brain-right [2, 5]: 21336.3 ng/g
- Analyte DHA, Concentration in Tissue: inferior rectus muscle-left [2, 5]: 3161.1 ng/g
- Analyte DHA, Concentration in Tissue: inferior rectus muscle-right [2, 5]: 1287.8 ng/g
- Analyte DHA, Concentration in Tissue: lateral rectus muscle-left [2, 5]: 1356.3 ng/g
- Analyte DHA, Concentration in Tissue: lateral rectus muscle-right [2, 5]: 1085.6 ng/g
- Analyte DHA, Concentration in Tissue: medial rectus muscle-left [2, 5]: 4874.6 ng/g
- Analyte DHA, Concentration in Tissue: medial rectus muscle-right [2, 5]: 1690.7 ng/g
- Analyte DHA, Concentration in Tissue: optic nerve-left [2, 5]: 8794.6 ng/g
- Analyte DHA, Concentration in Tissue: optic nerve-right [2, 5]: 8839.4 ng/g
- Analyte DHA, Concentration in Tissue: retina-left [2, 5]: 48882.9 ng/g
- Analyte DHA, Concentration in Tissue: retina-right [2, 5]: 41629.4 ng/g
- Analyte DHA, Concentration in Tissue: superior rectus muscle-left [2, 5]: 10400.7 ng/g
- Analyte DHA, Concentration in Tissue: superior rectus muscle-right [2, 5]: 743.6 ng/g
- Analyte DHA-EE, % of administered dose: Cerebrospinal fluid [2, 5]: 0%
- Analyte DHA-EE, % of administered dose: brain-left [2, 5]: 0%
- Analyte DHA-EE, % of administered dose: brain-right [2, 5]: 0%
- Analyte DHA-EE, % of administered dose: inferior rectus muscle-left [2, 5]: 0.02%
- Analyte DHA-EE, % of administered dose: inferior rectus muscle-right [2, 5]: 0%
- Analyte DHA-EE, % of administered dose: lateral rectus muscle-left [2, 5]: 0.003%
- Analyte DHA-EE, % of administered dose: lateral rectus muscle-right [2, 5]: 0%
- Analyte DHA-EE, % of administered dose: medial rectus muscle-left [2, 5]: 0.02%
- Analyte DHA-EE, % of administered dose: medial rectus muscle-right [2, 5]: 0%
- Analyte DHA-EE, % of administered dose: optic nerve-left [2, 5]: 0%
- Analyte DHA-EE, % of administered dose: optic nerve-right [2, 5]: 0%
- Analyte DHA-EE, % of administered dose: retina-left [2, 5]: 0%
- Analyte DHA-EE, % of administered dose: retina-right [2, 5]: 0%
- Analyte DHA-EE, % of administered dose: superior rectus muscle-left [2, 5]: 0.04%
- Analyte DHA-EE, % of administered dose: superior rectus muscle-right [2, 5]: 0%
- Analyte DHA-EE, Concentration in Tissue: Cerebrospinal fluid [2, 5]: 0 ng/g
- Analyte DHA-EE, Concentration in Tissue: brain-left [2, 5]: 0 ng/g
- Analyte DHA-EE, Concentration in Tissue: brain-right [2, 5]: 0 ng/g
- Analyte DHA-EE, Concentration in Tissue: inferior rectus muscle-left [2, 5]: 7444.8 ng/g
- Analyte DHA-EE, Concentration in Tissue: inferior rectus muscle-right [2, 5]: 0 ng/g
- Analyte DHA-EE, Concentration in Tissue: lateral rectus muscle-left [2, 5]: 995.7 ng/g
- Analyte DHA-EE, Concentration in Tissue: lateral rectus muscle-right [2, 5]: 0 ng/g
- Analyte DHA-EE, Concentration in Tissue: medial rectus muscle-left [2, 5]: 7382.3 ng/g
- Analyte DHA-EE, Concentration in Tissue: medial rectus muscle-right [2, 5]: 0 ng/g
- Analyte DHA-EE, Concentration in Tissue: optic nerve-left [2, 5]: 0 ng/g
- Analyte DHA-EE, Concentration in Tissue: retina-left [2, 5]: 0 ng/g
- Analyte DHA-EE, Concentration in Tissue: retina-right [2, 5]: 0 ng/g
- Analyte DHA-EE, Concentration in Tissue: superior rectus muscle-left [2, 5]: 12844.5 ng/g
- Analyte DHA-EE, Concentration in Tissue: superior rectus muscle-right [2, 5]: 0 ng/g
- Average DHA present in the brain [2, 5]: 21218 ng/g
- DHA-EE in ocular muscles of the dosed eye [2, 5]: detectable
- DHA-EE measured in the brain [2, 5]: no DHA-EE was measured in the brain
- Drug Concentration in Plasma, analyte DHA [2, 5]: BLQ
- Drug Concentration in Plasma, analyte DHA-EE [2, 5]: BLQ
SMILES: CC/C=C\C/C=C\C/C=C\C/C=C\C/C=C\C/C=C\CCC(=O)OCC [DHA-EE, Docosahexaenoic acid ethyl ester]
